For assay [1], the target named is C-Raf (Homo sapiens, UniProt P04049, Y340D/Y341D). The assay is described as follows: Raf kinase assay (Upstate kit, MEK-1 substrate, dot blot), C-Raf. It counts as biochemical. The settings on record: TABLE 6-B (Section 6 compounds). The protocol:
The Raf kinase assay was performed by following the protocol of Raf kinase assay kit (B-Raf, Upstate, catalog#17-359; C-Raf, Upstate, catalog#17-360) with modifications. Briefly, assay buffer, ATP, substrate and Raf kinase were mixed in a 96 well assay plate. The final kinase assay mixture contained 20 mM MOPS, pH7.2, 25 mM β-glycerol phosphate, 5 mM EGTA, 1 mM sodium orthovanadate, 1 mM DTT, 250 μM ATP and 37.5 mM magnesium chloride, 0.1 μg/well of Raf kinase, and 1 μg/well of MEK-1 substrate protein. Assay samples were incubated for 30 min at room temperature. The kinase reaction was stopped by adding EDTA, pH8 to a final concentration of 25 mM. A 10 μl of the reaction sample was spotted onto nitrocellulose filter and dot blot was performed by adding 1 μg/ml of anti-phospho-MEK-1 antibody in the blocking solution (Licor Bioscience, catalogue #927-40000). The nitrocellulose filter was subsequently incubated with secondary IRDye 800CW goat anti-rabbit antibody (Licor Bioscience, catalogue #926-32211) before reading the signal on an Odyssey imager (Licor Bioscience).

In assay [2] the test system is Pancreas_Capan1. The assay is described as follows: Cell proliferation assay (ATPlite), Capan1. The following applies: Homo sapiens, CAPAN-1; TABLE C; 72 hours, 0.5% fetal bovine serum, ATP content; read-out: IC50 grading, Pancreas_Capan1. It counts as cell-based. On the procedure:
(§1) A representative number of compounds were assayed against several different cell lines using the cell proliferation assay:
(§2) Cell Proliferation Assay:
(§3) Cancer cell lines were plated at 5,000 to 10,000 per well in 96-well flatted bottomed plates with various concentration of compounds. The cells were incubated with compounds for 72 hours in the presence of 0.5% of fetal bovine serum. Growth inhibition was accessed by adenosine triphosphate (ATP) content assay using Perkin Elmer ATPlite kit. ATPlite is an ATP monitoring system based on firefly luciferase. Briefly, 25 μl of mammalian cell lysis solution was added to 50 μl of phenol red-free culture medium per well to lyse the cells and stabilize the ATP. 25 μl of substrate solution was then added to the well and subsequently the luminescence was measured.
For orientation: In ATP-based viability assays light output follows the ATP content of the culture.

In assay [3] the test system is Lung_H460. The assay is described as follows: Cell proliferation assay (ATPlite), H460. It counts as cell-based. The settings on record: Homo sapiens, NCI-H460; TABLE C; 72 hours, 0.5% fetal bovine serum, ATP content; read-out: IC50 grading, Lung_H460. The protocol:
as §1, §2, §3

Assay [4] relates to Lung_H358. The assay is described as follows: Cell proliferation assay (ATPlite), H358. It counts as cell-based. The settings on record: Homo sapiens, NCI-H358; TABLE C; 72 hours, 0.5% fetal bovine serum, ATP content; read-out: IC50 grading, Lung_H358. The protocol: as §1, §2, §3
Assay [5] concerns Lung_H1703. The assay is described as follows: Cell proliferation assay (ATPlite), H1703. It counts as cell-based. The settings on record: Homo sapiens, NCI-H1703; TABLE C; 72 hours, 0.5% fetal bovine serum, ATP content; read-out: IC50 grading, Lung_H1703. The protocol:
as §1, §2, §3

Assay [6] relates to Prostate_PC3 (PC-3, prostate adenocarcinoma). The assay is described as follows: Cell proliferation assay (ATPlite), PC3. It counts as cell-based. The protocol:
as §1, §2
(§4) Cancer cell lines were plated at 5,000 to 10,000 per well in 96-well flatted bottomed plates with various concentration of compounds. […] Growth inhibition was accessed by adenosine triphosphate (ATP) content assay using Perkin Elmer ATPlite kit. ATPlite is an ATP monitoring system based on firefly luciferase. Briefly, 25 μl of mammalian cell lysis solution was added to 50 μl of phenol red-free culture medium per well to lyse the cells and stabilize the ATP. 25 μl of substrate solution was then added to the well and subsequently the luminescence was measured.

The test system of assay [7] is Pancreas_BxPC3. The assay is described as follows: Cell proliferation assay (ATPlite), BxPC3. The following applies: Homo sapiens, BXPC-3; TABLE C; 72 hours, 0.5% fetal bovine serum, ATP content; read-out: IC50 grading, Pancreas_BxPC3. The class given is cell-based. The protocol:
as §1, §2, §3

In assay [8] the test system is Lung_H2122. The assay is described as follows: Cell proliferation assay (ATPlite), H2122. The settings on record: Homo sapiens, NCI-H2122; TABLE C; 72 hours, 0.5% fetal bovine serum, ATP content; read-out: IC50 grading, Lung_H2122. It counts as cell-based. The protocol:
as §1, §2, §3

Assay [9] deals with Lung_H1975. The assay is described as follows: Cell proliferation assay (ATPlite), H1975. It counts as cell-based. The settings on record: Homo sapiens, NCI-H1975; TABLE C; 72 hours, 0.5% fetal bovine serum, ATP content; read-out: IC50 grading, Lung_H1975. The protocol:
as §1, §2, §3

In assay [10] the test system is Pancreas_CFPAC. The assay is described as follows: Cell proliferation assay (ATPlite), CFPAC. It counts as cell-based. The following applies: TABLE C; 72 hours, 0.5% fetal bovine serum, ATP content; read-out: IC50 grading, Pancreas_CFPAC. The protocol:
as §1, §2, §3

Assay [11] relates to Pancreas_HPAC. The assay is described as follows: Cell proliferation assay (ATPlite), HPAC. The class given is cell-based. The following applies: Homo sapiens, TABLE C, 72 hours, 0.5% fetal bovine serum, ATP content, read-out: IC50 grading, Pancreas_HPAC. The protocol:
as §1, §2, §3

Assay [12] concerns Colon_HCT116 (HCT116, colon cancer). The assay is described as follows: Cell proliferation assay (ATPlite), HCT116. The class given is cell-based. The following applies: Homo sapiens, HCT-116. On the procedure:
as §1, §2, §4

Assay [13] deals with Pancreas_MiaPaCa2. The assay is described as follows: Cell proliferation assay (ATPlite), MiaPaCa2. The class given is cell-based. The following applies: Homo sapiens, MIA PaCa-2; TABLE C; 72 hours, 0.5% fetal bovine serum, ATP content; read-out: IC50 grading, Pancreas_MiaPaCa2. On the procedure:
as §1, §2, §3

Assay [14] concerns Pancreas_PANC1. The assay is described as follows: Cell proliferation assay (ATPlite), PANC1. It counts as cell-based. The settings on record: Homo sapiens, PANC-1; TABLE C; 72 hours, 0.5% fetal bovine serum, ATP content; read-out: IC50 grading, Pancreas_PANC1. On the procedure:
as §1, §2, §3

Assay [15] deals with Lung_HCC827. The assay is described as follows: Cell proliferation assay (ATPlite), HCC827. The following applies: Homo sapiens, TABLE C, 72 hours, 0.5% fetal bovine serum, ATP content, read-out: IC50 grading, Lung_HCC827. The class given is cell-based. On the procedure: as §1, §2, §3
In assay [16] the test system is A549 NSCLC xenograft. The assay is described as follows: A549 NSCLC Xenograft Model. It counts as in vivo. The following applies: FIG. 11A, 11B.
Assay [17] has as its system MDA-MB-231 (breast adenocarcinoma). The assay is described as follows: Cell proliferation assay (ATPlite), MDA-MB-231. It counts as cell-based. The settings on record: Homo sapiens, TABLE D, read-out: IC50 grading, MDA-MB-231. The protocol: as §1, §2, §4
In assay [18] the test system is Epidermoid_A431 (A431, epidermoid carcinoma). The assay is described as follows: Cell proliferation assay (ATPlite), A431. It counts as cell-based. The following applies: Homo sapiens, A-431; TABLE D; Epidermoid carcinoma; read-out: IC50 grading, A431. The protocol:
as §1, §2, §4

Assay [19] relates to Caki-1 (renal carcinoma). The assay is described as follows: Cell proliferation assay (ATPlite), Caki-1. The class given is cell-based. The settings on record: Homo sapiens, TABLE D, read-out: IC50 grading, Caki-1. The protocol: as §1, §2, §4
The test system of assay [20] is Breast_MDAMB468 (MDA-MB-468, breast adenocarcinoma). The assay is described as follows: Cell proliferation assay (ATPlite), MDA-MB-468. It counts as cell-based. The following applies: Homo sapiens, TABLE D, Breast adenocarcinoma, read-out: IC50 grading, MDA-MB-468. On the procedure: as §1, §2, §4
In assay [21] the test system is Prostate_22RV1 (22RV1, prostate carcinoma). The assay is described as follows: Cell proliferation assay (ATPlite), 22RV1. It counts as cell-based. The settings on record: Homo sapiens, TABLE D, Prostate carcinoma, read-out: IC50 grading, 22RV1. On the procedure: as §1, §2, §4
For assay [22], the system named is HCT-116 (colon) and SKBr3 (breast) cancer cells. The assay is described as follows: Induction of apoptosis, Caspase 3&7 activity (FIG. 4). The class given is cell-based. The following applies: concentration <20 μM.
Assay [23] concerns Breast_MCF7 (MCF-7, breast adenocarcinoma). The assay is described as follows: Cell proliferation assay (ATPlite), MCF7. The class given is cell-based. The settings on record: Homo sapiens, TABLE D, Breast adenocarcinoma, read-out: IC50 grading, MCF-7. The protocol: as §1, §2, §4
Assay [24] relates to Breast_SkBr3 (SKBr3, breast carcinoma). The assay is described as follows: Cell proliferation assay (ATPlite), SkBr3. It counts as cell-based. The settings on record: Homo sapiens, SK-BR-3; TABLE D; Breast carcinoma; read-out: IC50 grading, SKBr3. The protocol: as §1, §2, §4
The test system of assay [25] is ER mRNA expression in human ER-negative breast cancer cell lines. The settings on record: Yang et al. Cancer Res., 2001; cited from earlier work.
Where [26] appears, read: TABLE C, 72 hours, 0.5% fetal bovine serum, ATP content, read-out: IC50 grading, Colon_HCT116.

In general, IC50 refers to the point on the concentration scale where inhibition reaches its midpoint.

Like-named read-outs stand apart in the source and are kept apart here.

Chain of C-Raf (P04049 whole entry Y340D/Y341D): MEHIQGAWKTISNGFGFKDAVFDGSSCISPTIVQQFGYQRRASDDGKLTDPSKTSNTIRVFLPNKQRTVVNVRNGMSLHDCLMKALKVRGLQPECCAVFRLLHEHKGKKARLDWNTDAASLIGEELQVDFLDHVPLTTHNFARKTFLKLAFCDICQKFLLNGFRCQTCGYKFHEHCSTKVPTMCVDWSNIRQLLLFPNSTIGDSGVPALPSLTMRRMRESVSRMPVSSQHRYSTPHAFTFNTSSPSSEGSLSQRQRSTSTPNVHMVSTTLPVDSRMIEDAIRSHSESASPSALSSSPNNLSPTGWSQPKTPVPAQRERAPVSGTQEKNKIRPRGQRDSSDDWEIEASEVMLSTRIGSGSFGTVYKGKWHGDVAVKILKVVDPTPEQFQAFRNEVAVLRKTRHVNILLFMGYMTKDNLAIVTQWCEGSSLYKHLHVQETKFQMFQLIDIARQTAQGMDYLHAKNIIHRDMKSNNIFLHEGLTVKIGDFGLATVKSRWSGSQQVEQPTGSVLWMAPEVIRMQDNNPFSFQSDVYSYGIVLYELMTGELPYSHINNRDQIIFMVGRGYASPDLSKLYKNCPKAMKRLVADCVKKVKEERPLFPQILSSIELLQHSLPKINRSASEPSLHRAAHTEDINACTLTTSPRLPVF

In turn, `O=C(CCCCCNC(=O)c1cc(Oc2ccc(NC(=O)Nc3ccc(Cl)c(C(F)(F)F)c3)cc2)ccn1)NO` [Compound 5] gave a half-inhibitory concentration (IC50) in [1] of 1000 to 10000 nM.
As for `COc1cc2ncnc(Nc3ccc(F)c(Cl)c3)c2cc1OCCCCCCC(=O)NO` [Compound 6], the concentration for half-maximal inhibition (IC50) lay within 1000 to 10000 nM in assay [2]; 100 to 1000 nM in assay [3]; 100 to 1000 nM in assay [4]; 100 to 1000 nM in assay [5]; 100 to 1000 nM in assay [6] (TABLE C, 72 hours, 0.5% fetal bovine serum, ATP content, read-out: IC50 grading, Prostate_PC3); 100 to 1000 nM in assay [7]. Further, the concentration for half-maximal inhibition (IC50) in [8] and in assay [9] was 100 to 1000 nM in each case.
In the case of `O=C(CCCCCCC(=O)Nc1cc(Oc2ccc(NC(=O)Nc3ccc(Cl)c(C(F)(F)F)c3)cc2)ccn1)NO` [Compound 12], the half-maximal inhibitory concentration (IC50) in assay [1] was < 100 nM.
On to `O=C(CCCCCCOc1ccc2ncnc(Nc3ccc(F)c(Cl)c3)c2c1)NO` [Compound 18], for which the half-inhibitory concentration (IC50) in [10] lay in the range of 100 to 1000 nM; in assay [11], 1000 to 10000 nM; in assay [7], 100 to 1000 nM; in [12] (setting [26]), 100 to 1000 nM; in [13], 100 to 1000 nM; in assay [14], 100 to 1000 nM.
As for `C#Cc1cccc(Nc2ncnc3cc(OC)c(NC(=O)CCCCCCC(=O)NO)cc23)c1` [Compound 44], the IC50 is 1000 to 10000 nM in [2]; 1000 to 10000 nM in assay [3]; 1000 to 10000 nM in [4]; 1000 to 10000 nM in assay [5]; 100 to 1000 nM in assay [15]; 1000 to 10000 nM in assay [7]. The IC50 in [8] and in assay [9] was 1000 to 10000 nM in each case.
In the case of `COc1cc2ncnc(NCc3ccccc3)c2cc1OCCCCCCC(=O)NO` [Compound 85, 7-(4-(Benzylamino)-7-methoxyquinazolin-6-yloxy)-N-hydroxyheptanamide], the IC50 in [10] lay within 1000 to 10000 nM; in assay [11], 1000 to 10000 nM; in assay [7], 100 to 1000 nM; in assay [12] (setting [26]), 100 to 1000 nM; in assay [13] it was 1000 to 10000 nM; in assay [14], 1000 to 10000 nM.
For the molecule `C#Cc1cccc(Nc2ncnc3cc(OCCOC)c(OCCOC)cc23)c1` [Erlotinib, reference compound], the “effect on tumor growth / tumor size” value in assay [16] was “did not significantly affect tumor size”. Further, the IC50 is ≥ 5000 nM in assay [17]; 500 to 5000 nM in [18]; 50 to 500 nM in [19]; 500 to 5000 nM in assay [20]; 50 to 500 nM in assay [21]; ≥ 5000 nM in assay [6] (TABLE D, Prostate adenocarcinoma, read-out: IC50 grading, PC-3). Besides, the half-inhibitory concentration (IC50) was ≥ 5000 nM in assay [12] (TABLE D, Colon cancer, read-out: IC50 grading, HCT116); ≥ 5000 nM in [23]; ≥ 5000 nM in assay [24]. In assay [22], the “induction of apoptosis (Caspase 3&7 activity)” value was “inactive”.
Consider `CC(/C=C/C(=O)NO)=C\[C@@H](C)C(=O)c1ccc(N(C)C)cc1` [TSA, trichostatin A], for which the “fold increase in ER mRNA expression” value in [25] is recorded as 5 fold.
